The results in this text go back to patent US11059792B2, “Imidazolyl tricyclic enones as antioxidant inflammation modulators” (REATA PHARMACEUTICALS, INC., priority 2015, dated 2021).

Each structure is given as a SMILES string. Some results are limits rather than exact numbers.

The subject of the assay is RAW 264.7 cells. The assay is described as follows: Nitric oxide suppression assay (IFNγ-induced NO production, Griess detection). The assay is classed as cell-based. Particulars: RAW264.7, RAW 264.7 mouse macrophages, 2 h compound pre-treatment, 20 ng/mL interferon gamma, ~18 h. As to the method:
RAW 264.7, a mouse macrophage cell line, was obtained from American Type Culture Collection (Manassas Va.) and maintained in the log phase of growth in Dulbecco's Modified Eagle's Medium (DMEM), 10% heat inactivated fetal calf serum and 100 units/mL antibiotic-antimycotic (AA). Cells were cultured and maintained in a humidified incubator at 37° C. under 5% CO2 and 95% air. Cells were sub-cultured every 3 days by scraping and were not used beyond passage 20. All cell culture supplies were obtained from Life Technologies (Grand Island, N.Y.).
RAW 264.7 cells were plated 1 day in advance of experiment at a concentration of 80,000 cells/well onto CellBIND® 96 well plates (Corning, N.Y.) in a total volume of 100 μL. The next day, pre-treat cells with compounds (from 3 μM to 0.3 nM serially diluted in a 10 point curve) from a 10× stock by adding 10 μL per well in complete DMEM media containing 10% fetal calf serum. The plates were centrifuged for 3 minutes at 400×g at room temperature followed by 2 hour incubation at 37° C. The cells were then incubated overnight at 37° C. with 10 μL of the insult, interferon gamma (R&D Systems, Minneapolis, Minn.), from a 10× stock for a final concentration of 20 ng/mL. The plates were centrifuged for 3 minutes at 400×g at room temperature followed by ˜18 hour incubation at 37° C. The following day, transfer 50 μL cell culture supernatant from each well into a clear bottom 96 well plate and follow the instructions from Promega's Griess Detection Kit #G2930 (Madison, Wis.) which involves the addition of 50 μL of the provided sulfanilamide solution for a 5-10 minute incubation at room temperature. Next add 50 μL of the provided N-1-napthylethylenediamine dihydrochloride (NED) solution for a 5-10 minute incubation at room temperature and protected from light. If any air bubbles were introduced into the well, the plates need to be centrifuged for 5 minutes at 400×g at room temperature to avoid interference with absorbance readings. The plates were read for absorbance within 30 minutes with a filter between 520 nm and 550 nm.
For the ability of compounds to suppress the increase in nitric oxide release, the percent maximal intensity of nitric oxide detected in each well was normalized to that induced by the peak value for 20 ng/mL of interferon gamma alone and plotted against the compound concentration to calculate IC50 values and to control for plate-to-plate variability. Concentration-response data were analyzed using GraphPad Prism (San Diego, Calif.); the IC50 values were derived from a single curve fit to the mean data of n=2-3, in duplicates.
All compounds were dissolved in dimethyl sulfoxide at 10 mM stock solutions and tested at a concentration that the dimethyl sulfoxide levels never exceeded 1%.
(In general: Nitrite, measured by Griess reagent, commonly stands in for NO production.)
As for `C[C@@H]1C(=O)C(C#N)=C[C@]2(C)c3nc(-c4ccccc4)[nH]c3CC[C@@H]12` [Compound T1], the half-inhibitory concentration (IC50) came to 151 nM.
Turning to `C[C@@H]1C(=O)C(C#N)=C[C@]2(C)c3nc(-c4ccccc4)n(-c4ccccc4)c3CC[C@@H]12` [Compound T2], the half-maximal inhibitory concentration (IC50) was 471 nM.
For `Cc1nc2c(n1-c1ccccc1)CC[C@H]1[C@H](C)C(=O)C(C#N)=C[C@]21C` [Compound T3], the IC50 was 40.8 nM.
For the compound `CC(=O)OCCCc1cccc(-n2c(-c3ccccc3)nc3c2CC[C@H]2[C@H](C)C(=O)C(C#N)=C[C@]32C)c1` [Compound T4], the IC50 came to 662 nM.
For `Cc1nc2c(n1-c1cccc(CCCO)c1)CC[C@H]1[C@H](C)C(=O)C(C#N)=C[C@]21C` [Compound T6] the value was 19.4 nM; for `Cc1nc2c(n1-c1cccc(-c3ccccc3)c1)CC[C@H]1[C@H](C)C(=O)C(C#N)=C[C@]21C` [Compound T7], 91.8 nM; for `C[C@@H]1C(=O)C(C#N)=C[C@]2(C)c3nc(-c4ccccc4)n(-c4nnn(C)n4)c3CC[C@@H]12` [Compound T8], 28.8 nM.
In the case of `C[C@@H]1C(=O)C(C#N)=C[C@]2(C)c3nc(-c4cnn(C)c4)n(-c4ccccc4)c3CC[C@@H]12` [Compound T9], the IC50 is 22.7 nM.
Regarding `Cc1ccccc1-n1c(C)nc2c1CC[C@H]1[C@H](C)C(=O)C(C#N)=C[C@]21C` [Compound T10], the IC50 is 62.8 nM.
With `C[C@@H]1C(=O)C(C#N)=C[C@]2(C)c3nc(CCOCc4ccccc4)n(-c4ccccc4)c3CC[C@@H]12` [Compound T11], the IC50 is 93.2 nM.
With `C[C@@H]1C(=O)C(C#N)=C[C@]2(C)c3nc(CCO)n(-c4ccccc4)c3CC[C@@H]12` [Compound T12], the half-maximal inhibitory concentration (IC50) came out at 11.3 nM.
Take `Cc1nc2c(n1-c1cnn(C)c1)CC[C@H]1[C@H](C)C(=O)C(C#N)=C[C@]21C` [Compound T13]: the IC50 came out at 233 nM.
On to `COC(=O)CCc1cccc(-n2c(C)nc3c2CC[C@H]2[C@H](C)C(=O)C(C#N)=C[C@]32C)c1` [Compound T14], for which the half-maximal inhibitory concentration (IC50) was 222 nM.
Consider `Cc1nc2c(n1-c1cccc(CCC(=O)O)c1)CC[C@H]1[C@H](C)C(=O)C(C#N)=C[C@]21C` [Compound T15], for which the IC50 was over 3000 nM.
For the compound `C[C@@H]1C(=O)C(C#N)=C[C@]2(C)c3nc(-c4cnn(C)c4)n(-c4nnn(C)n4)c3CC[C@@H]12` [Compound T16], the IC50 came to 132 nM.
With `C[C@@H]1C(=O)C(C#N)=C[C@]2(C)c3nc(-c4ccccc4)n(-c4cnn(C)c4)c3CC[C@@H]12` [Compound T17], the concentration for half-maximal inhibition (IC50) was 120 nM.
For the compound `CNC(=O)CCc1cccc(-n2c(C)nc3c2CC[C@H]2[C@H](C)C(=O)C(C#N)=C[C@]32C)c1` [Compound T18], the IC50 is 693 nM.
With `Cc1nc2c(n1-c1cccc(CCC(=O)N(C)C)c1)CC[C@H]1[C@H](C)C(=O)C(C#N)=C[C@]21C` [Compound T19], the 50% inhibitory concentration (IC50) is 82.7 nM.
Consider `Cc1nc2c(n1-c1cccc(CCC(N)=O)c1)CC[C@H]1[C@H](C)C(=O)C(C#N)=C[C@]21C` [Compound T20], for which the half-inhibitory concentration (IC50) is 1000 nM.
For the compound `COCCCn1c(C)nc2c1CC[C@H]1[C@H](C)C(=O)C(C#N)=C[C@]21C` [Compound T21], the 50% inhibitory concentration (IC50) stood at 407 nM.
In the case of `Cc1nc2c(n1-c1cccc(-c3cncnc3)c1)CC[C@H]1[C@H](C)C(=O)C(C#N)=C[C@]21C` [Compound T22] it was 47.8 nM; in that of `C[C@@H]1C(=O)C(C#N)=C[C@]2(C)c3nc(Br)n(-c4ccccc4)c3CC[C@@H]12` [Compound T23], 31.1 nM.
For the compound `C[C@@H]1C(=O)C(C#N)=C[C@]2(C)c3nc(-c4ccncc4)n(-c4ccccc4)c3CC[C@@H]12` [Compound T24], the IC50 is 48.8 nM.
As to `Cc1ccccc1-c1nc2c(n1-c1nnn(C)n1)CC[C@H]1[C@H](C)C(=O)C(C#N)=C[C@]21C` [Compound T25], the IC50 was 15.4 nM.
Turning to `C[C@@H]1C(=O)C(C#N)=C[C@]2(C)c3nc(C#N)n(-c4ccccc4)c3CC[C@@H]12` [Compound T26], the IC50 is 27.7 nM.
For the compound `C[C@@H]1C(=O)C(C#N)=C[C@]2(C)c3nc(C(N)=O)n(-c4ccccc4)c3CC[C@@H]12` [Compound T27], the IC50 is 53.1 nM.
With `Cc1nc2c(n1-c1ccccc1)CC[C@H]1[C@H](C)C(=O)C(C(N)=O)=C[C@]21C` [Compound T28], the half-maximal inhibitory concentration (IC50) came to 138 nM.
Regarding `Cc1nc2c(n1-c1ccc(-c3ccccc3)cc1)CC[C@H]1[C@H](C)C(=O)C(C#N)=C[C@]21C` [TS], the IC50 was found to be 136 nM.

One may read the IC50 as the concentration needed to halve the response being measured.
